Experimental findings from PubChem BioAssay (NCI) are described below.

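Compound exposure: 48 hours, 5 concentrations, 96-well plates. Here, GI50 denotes the concentration required for 50% inhibition of growth. TGI marks complete inhibition of growth.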 Where a SMILES comes first, the peptide text is derived from it. The star is where a group is joined. Boc = CC(C)(C)OC(=O)*

The test system of one assay is RPMI-8226 leukemia. Put plainly: NCI-60 cell line screen, 48 h.
Consider `COc1ccc2nc3cc(Cl)ccc3c(NCCCNCCCNc3c4ccc(Cl)cc4nc4ccc(OC)cc34)c2c1`, for which the TGI was found to be 27.7 µM.

`c1ccc2sc(SCSc3nc4ccccc4s3)nc2c1` gave a TGI greater than 100 µM.

`O=c1oc(-c2ccc(O)c(O)c2)cc2cccc(O)c12` came in with a TGI of 29.5 µM.

With `COc1cc2c(cc1-c1c(C)noc1C)cc(C)c(=O)n2Cc1ccccn1`, the GI50 is 0.307 µM and the TGI came out at 3.86 µM.

`O=C(CCCN1CCC2(CC1)CC(=O)N(N1CCOCC1)C2=O)c1ccccc1` registered a TGI greater than 100 µM.

For `O=[N+]([O-])/C(C(Cl)=C(Cl)Cl)=C(\Nc1cccc2cccnc12)SCc1ccccc1`, the TGI was greater than 100 µM.

As for `O=C(NCCN1CCOCC1)c1ccc2cc(C(=O)N3CC(CCl)c4ccc([N+](=O)[O-])cc43)[nH]c2c1` (stereo not drawn), the TGI is 9.09 µM.

Consider `O=C(CNc1ccccc1Cl)Nn1c(-c2ccccc2)nc2ccccc2c1=O`, for which the TGI is greater than 100 µM.

For `Cc1cc2[nH]c3[nH]c(=O)[nH]c(=O)c3c2cc1C`, the TGI is greater than 100 µM.

Take `C/C=C/C=C/c1nc(C#N)c(N)o1`: the TGI is greater than 100 µM.

In the case of `O=c1c2ccccc2nc2[nH][nH]c(=S)n12`, the TGI is greater than 100 µM.

`CC(C)(C)OC(=O)NCC(=O)NCC(=O)NCC(=O)NCC(=O)O` (Boc-GGGG-OH) had a TGI greater than 100 µM.

Regarding `COc1cc(C2SCC(=O)N2c2ccc(NC(=O)c3ccc(N4C(=O)CSC4c4cc(OC)c(OC)c(OC)c4)cc3)cc2)cc(OC)c1OC` (stereo not drawn), the TGI was greater than 100 µM.

The compound `N#C/C(=C\c1cc(Br)c(O)c(Br)c1)c1cccnc1` showed a TGI of 86.3 µM.

The next assay deals with HL-60(TB) leukemia. The experiment in a line: NCI-60 cell line screen, 48 h.
The compound `CS(=O)(=O)OCCn1c(=O)n(CCOS(C)(=O)=O)c(=O)n(CCOS(C)(=O)=O)c1=O` gave a TGI greater than 100 µM.

For the compound `c1ccc2c(c1)NC(C1OC3CCCN3C1C1Nc3ccccc3S1)S2` (stereo not drawn), the TGI turned out to be 46.7 µM.

Regarding `CC(C)(C)NC(=O)/C(=C\Sc1ccccc1)c1ccc2c(c1)OCO2`, the TGI stood at 41.9 µM.

`COc1nc(C#CCC(C)O)nc(OC)n1` (stereo not drawn) showed a TGI of 94.6 µM.

With `COc1ccc2cc(-c3ccc(-c4ccc(C(=N)N)s4)s3)ccc2c1`, the GI50 is 1.84 µM and the TGI was 5.34 µM.

For `N#CCCN(CCC#N)c1ccc(/C=C2\N=C(c3ccccc3)N(c3ccc(Cl)cc3)C2=O)cc1`, the TGI was greater than 100 µM.

For the compound `Cc1c(S(=O)(=O)/N=C(\N)Nc2ccc(Cl)cc2)sc2ccc(Cl)cc12`, the TGI worked out at 63.5 µM.

For the compound `CC(=O)N/N=C1\NC(=O)C[C@H]2[C@@H]3CC=C4C[C@@H](OC(C)=O)CC[C@]4(C)[C@H]3CC[C@]12C`, the TGI is greater than 100 µM.

For `COc1ccc2nc3cc(Cl)ccc3c(NCCCNCCCNc3c4ccc(Cl)cc4nc4ccc(OC)cc34)c2c1`, the TGI amounted to 23.2 µM.

`O=c1oc(-c2ccc(O)c(O)c2)cc2cccc(O)c12` had a TGI of 50.2 µM.

Regarding `COc1cc2c(cc1-c1c(C)noc1C)cc(C)c(=O)n2Cc1ccccn1`, the GI50 was 0.301 µM and the TGI came out at 3.77 µM.

`CCOC(=O)c1c(-c2ccc(OC)cc2)c(C#N)c(=S)n(C2OC(COC(C)=O)C(OC(C)=O)C(OC(C)=O)C2OC(C)=O)c1C` (stereo not drawn) registered a TGI greater than 100 µM.

With `O=C(CCCN1CCC2(CC1)CC(=O)N(N1CCOCC1)C2=O)c1ccccc1`, the TGI is greater than 100 µM.

As for `CCOC(=N)n1c(=O)n(C2=NCCN2)c2ccccc21`, the TGI is greater than 100 µM.

Regarding `O=C(NCCN1CCOCC1)c1ccc2cc(C(=O)N3CC(CCl)c4ccc([N+](=O)[O-])cc43)[nH]c2c1` (stereo not drawn), the TGI came out at 94.7 µM.

In turn, `O=C(CNc1ccccc1Cl)Nn1c(-c2ccccc2)nc2ccccc2c1=O` gave a TGI of 65.7 µM.

For `O=c1c2ccccc2nc2[nH][nH]c(=S)n12`, the TGI is greater than 100 µM.

For `CC(C)(C)OC(=O)NCC(=O)NCC(=O)NCC(=O)NCC(=O)O` (Boc-GGGG-OH), the TGI was greater than 100 µM.

`COc1ccc(CC(O)CN2CCOCC2)cc1` (stereo not drawn) returned a TGI greater than 100 µM.

Compound `N#C/C(=C\c1cc(Br)c(O)c(Br)c1)c1cccnc1` returned a TGI greater than 100 µM.

For a further assay, the system named is HCC-2998 colon. Put plainly: NCI-60 cell line screen, 48 h.
`CS(=O)(=O)OCCn1c(=O)n(CCOS(C)(=O)=O)c(=O)n(CCOS(C)(=O)=O)c1=O` registered a TGI greater than 100 µM.

Consider `c1ccc2c(c1)NC(C1OC3CCCN3C1C1Nc3ccccc3S1)S2` (stereo not drawn), for which the TGI was greater than 100 µM.

Compound `CC(C)(C)NC(=O)/C(=C\Sc1ccccc1)c1ccc2c(c1)OCO2` had a TGI greater than 100 µM.

`O=C1C[C@H](Sc2ccccc2)C2(OCCO2)[C@@H](Sc2ccccc2)C1` had a TGI of 6.42 µM.

Take `Cc1c2c(n(CCc3ccc(Cl)cc3)c1C)NN=C(C#N)S2(=O)=O`: the TGI is greater than 100 µM.

As for `CCN(C(=S)N[C@@H](Cc1ccccc1)C(=O)N[C@@H](CC(C)C)C(=O)OC)c1ccccc1`, the TGI was greater than 100 µM.

With `COc1ccc2cc(-c3ccc(-c4ccc(C(=N)N)s4)s3)ccc2c1`, the GI50 was 3.35 µM and the TGI was found to be 11.7 µM.

Take `CC12CC(=O)C3C(C(=O)C1)C32C` (stereo not drawn): the TGI was greater than 100 µM.

In turn, `O=C1CN2C(c3ccccc3)=NN(c3ccc([N+](=O)[O-])cc3)C2(c2ccccc2)c2cc(Cl)ccc2N1CC1CC1` (stereo not drawn) yielded a TGI greater than 100 µM.

The compound `COc1ccc2nc3cc(Cl)ccc3c(NCCCNCCCNc3c4ccc(Cl)cc4nc4ccc(OC)cc34)c2c1` came in with a TGI of 0.147 µM.

`c1ccc2sc(SCSc3nc4ccccc4s3)nc2c1` displayed a TGI greater than 100 µM.

As for `O=c1oc(-c2ccc(O)c(O)c2)cc2cccc(O)c12`, the TGI amounted to 37 µM.

As for `COc1cc2c(cc1-c1c(C)noc1C)cc(C)c(=O)n2Cc1ccccn1`, the GI50 is 1.79 µM and the TGI was determined as 17.3 µM.

The compound `CCOC(=O)c1c(-c2ccc(OC)cc2)c(C#N)c(=S)n(C2OC(COC(C)=O)C(OC(C)=O)C(OC(C)=O)C2OC(C)=O)c1C` (stereo not drawn) had a TGI greater than 100 µM.

With `O=C(CCCN1CCC2(CC1)CC(=O)N(N1CCOCC1)C2=O)c1ccccc1`, the TGI is greater than 100 µM.

Consider `O=[N+]([O-])/C(C(Cl)=C(Cl)Cl)=C(\Nc1cccc2cccnc12)SCc1ccccc1`, for which the TGI worked out at 36.7 µM.

`CCOC(=N)n1c(=O)n(C2=NCCN2)c2ccccc21` gave a TGI greater than 100 µM.

The compound `O=C(NCCN1CCOCC1)c1ccc2cc(C(=O)N3CC(CCl)c4ccc([N+](=O)[O-])cc43)[nH]c2c1` (stereo not drawn) came in with a TGI of 29.7 µM.

For `CSc1cc(Cl)c(C)cc1S(=O)(=O)NC(=O)NNc1ccc(Cl)cc1`, the TGI was greater than 100 µM.

In the case of `O=C(CNc1ccccc1Cl)Nn1c(-c2ccccc2)nc2ccccc2c1=O`, the TGI came out at 39.8 µM.

Consider `Cc1cc2[nH]c3[nH]c(=O)[nH]c(=O)c3c2cc1C`, for which the TGI was greater than 100 µM.

`C/C=C/C=C/c1nc(C#N)c(N)o1` yielded a TGI greater than 100 µM.

For `CC(C)(C)OC(=O)NCC(=O)NCC(=O)NCC(=O)NCC(=O)O` (Boc-GGGG-OH), the TGI was greater than 100 µM.

Regarding `COc1cc(C2SCC(=O)N2c2ccc(NC(=O)c3ccc(N4C(=O)CSC4c4cc(OC)c(OC)c(OC)c4)cc3)cc2)cc(OC)c1OC` (stereo not drawn), the TGI is greater than 100 µM.
